Data as given in patent US20250129067A1 (Progentos Therapeutics, Inc., priority 2021, published 2025).

Experiments:
[1] = test system: GPR17+ cells (newly differentiated oligodendrocytes); experiment: In vivo OPC differentiation, GPR17+ cells in brain; conditions: Mus musculus, po, 24 h, read-out: GPR17 Fold Induction (Over Vehicle)
Experimental: The ability of newly constructed compounds to drive OPC differentiation and myelination in vivo was tested. The ability of these compounds to drive OPC differentiation in vivo was tested using GPR17 as an indicator of newly differentiated oligodendrocytes.
Compounds were delivered PO or IP either QD or BID. Mice were dosed once, transiently, or continuously through the treatment period, which ranged from 1-3 days.
Mice were euthanized by isoflurane exposure and transcardially perfused with 14 mL of PBS (Sigma Cat #P4417-50TAB) followed by 22 mL of 3.2% paraformaldehyde in PBS. The brains were removed and postfixed for a minimum of 24 hours in 20 mL of 3.2% paraformaldehyde.
50-micron floating sections were cut using a Leica VT1200S vibratome. Every 24th section, extending through the antero-posterior extent of the brain, was stained. The selected brain sections were washed three times in PBS for 3 minutes each. The floating sections were incubated in the primary antibodies (see Table 10, below) diluted in blocking solution overnight at room temperature on a shaker. […] The next day, the sections were again washed three times in PBS for 3 minutes each and then incubated in the secondary antibodies diluted in blocking solution for 2 hours at room temperature on a shaker. After incubation, the sections were washed three times in PBS for 3 minutes each and mounted on a slide to be imaged using the Olympus Slide Scanner VS200.
The images were analyzed using a custom protocol developed using Visiopharm software to count GPR17+ cells. Cells were considered GPR17+ if they contained an Olig2 positive nucleus, and intense GPR 17 staining that filled their processes. Statistical analysis was done using one-way ANOVA with multiple comparison in GraphPad Prism software.

[2] = test system: Oligodendrocyte progenitor cells (OPCs); experiment: In vitro OPC differentiation assay, GPR17 expression (immunocytochemistry); conditions: 3 μM (10× concentration, final 0.3 μM); 72 hours; fold change over vehicle
PDGFRα = PDGFRα (Homo sapiens (Human), UniProt P16234); experiment: PDGFRα kinase enzyme assay (Promega PDGFRα Kinase Enzyme System, ADP-Glo); assay type: biochemical; conditions: 11-point dose response, 10,000 nM to 0.169 nM, 150 uM ATP, BLQ = below limit of quantitation; for IC50: read-out: IC50 Values on PDGFRα Kinase Inhibition, IC50
Method in brief: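 Read-out was ADP-Glo: remaining ATP depleted, ADP converted to luminescence and compared with a standard curve.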

Chain of PDGFRα (P16234 24-1089): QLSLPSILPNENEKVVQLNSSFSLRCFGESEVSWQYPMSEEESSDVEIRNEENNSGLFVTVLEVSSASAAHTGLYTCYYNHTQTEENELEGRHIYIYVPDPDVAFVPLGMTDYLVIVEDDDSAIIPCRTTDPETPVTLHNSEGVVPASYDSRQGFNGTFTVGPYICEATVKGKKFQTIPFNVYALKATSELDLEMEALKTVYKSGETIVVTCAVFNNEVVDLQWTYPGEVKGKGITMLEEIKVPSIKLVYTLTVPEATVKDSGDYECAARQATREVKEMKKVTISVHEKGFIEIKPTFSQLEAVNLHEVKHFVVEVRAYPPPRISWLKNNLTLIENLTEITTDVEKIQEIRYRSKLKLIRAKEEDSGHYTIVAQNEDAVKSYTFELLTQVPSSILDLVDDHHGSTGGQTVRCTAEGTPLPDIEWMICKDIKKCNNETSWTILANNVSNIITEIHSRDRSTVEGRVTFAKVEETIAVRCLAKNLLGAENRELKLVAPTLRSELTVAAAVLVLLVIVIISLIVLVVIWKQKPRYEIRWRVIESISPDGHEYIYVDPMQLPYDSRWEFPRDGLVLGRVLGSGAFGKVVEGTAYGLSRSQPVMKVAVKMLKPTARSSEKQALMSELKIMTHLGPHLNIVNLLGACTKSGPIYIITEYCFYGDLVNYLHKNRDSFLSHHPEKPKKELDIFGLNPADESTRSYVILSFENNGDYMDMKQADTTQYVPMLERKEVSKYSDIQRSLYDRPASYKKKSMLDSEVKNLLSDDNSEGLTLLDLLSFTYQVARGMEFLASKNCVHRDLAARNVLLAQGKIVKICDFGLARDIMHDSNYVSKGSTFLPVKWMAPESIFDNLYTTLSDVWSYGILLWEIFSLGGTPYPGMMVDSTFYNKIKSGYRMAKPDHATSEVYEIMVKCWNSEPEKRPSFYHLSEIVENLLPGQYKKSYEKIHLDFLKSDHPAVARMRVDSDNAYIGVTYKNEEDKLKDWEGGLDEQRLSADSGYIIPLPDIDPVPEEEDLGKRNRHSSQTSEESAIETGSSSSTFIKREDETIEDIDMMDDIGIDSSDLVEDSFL

Row | Compound | fold induction at 3 mg/kg [1] | fold induction at 30 mg/kg [1] | GPR17 Fold Induction (Over Vehicle; 3 μM) [2] | IC50 (PDGFRα) | IC50 Values on PDGFRα Kinase Inhibition, IC50 (nM) (PDGFRα)
1 | Cn1cc(-c2ccc3c(N4CCN(c5ncc(C(O)C6CCOCC6)cn5)CC4)cnn3c2)cn1 (stereo not shown) [Compound 69, (2-{4-[6-(1-methyl-1H-pyrazol-4-yl)pyrazolo[1,5-a]pyridin-3-yl]piperazin-1-yl}pyrimidin-5-yl)(tetrahydro-2H-pyran-4-yl)methanol] | 1.09 | 2.34 | 4.53 | 154 nM | 
2 | C[C@@H](OC(=O)N1CCN(c2cnn3cc(-c4cnn(C)c4)cnc23)CC1)c1ccccc1 [Compound 73, (1R)-1-Phenylethyl 4-[6-(1-methyl-1H-pyrazol-4-yl)pyrazolo[1,5-a]pyrimidin-3-yl]piperazine-1-carboxylate] | 1.77 |  | 6.68 | 116 nM | 
3 | C[C@@H](OC(=O)N1CCN(c2cnn3cc(-c4cnn(C)c4)ccc23)CC1)c1ccc(F)cc1 [Compound 77, (1R)-1-(4-Fluorophenyl)ethyl 4-[6-(1-methyl-1H-pyrazol-4-yl)pyrazolo[1,5-a]pyridin-3-yl]piperazine-1-carboxylate] | 8.64 |  | 7.12 |  | BLQ
4 | C[C@@H](OC(=O)N1CCN(c2cnn3cc(-c4cnn(C)c4)ccc23)CC1)c1cccc(F)c1 [Compound 79, (1R)-1-(3-Fluorophenyl)ethyl 4-[6-(1-methyl-1H-pyrazol-4-yl)pyrazolo[1,5-a]pyridin-3-yl]piperazine-1-carboxylate] | 2.81 |  | 5.46 | 16.1 nM | 
5 | Cn1cc(-c2ccc3c(N4CCC(c5ncc(Cc6ccccc6)cn5)CC4)cnn3c2)cn1 [Compound 148, 3-(4-(5-benzylpyrimidin-2-yl)piperidin-1-yl)-6-(1-methyl-1H-pyrazol-4-yl)pyrazolo[1,5-a]pyridine] | 1.22 |  | 7.82 | 8160 nM | 
6 | Cn1cc(-c2ccc3c(N4CCN(c5ccc(Cc6ccccc6)nc5)CC4)cnn3c2)cn1 [Compound 151, 3-(4-(6-benzylpyridin-3-yl)piperazin-1-yl)-6-(1-methyl-1H-pyrazol-4-yl)pyrazolo[1,5-a]pyridine] | 1.73 |  | 20.40 | 2780 nM | 
7 | Cn1cc(-c2ccc3c(N4CCN(c5ncn(Cc6ccccc6)n5)CC4)cnn3c2)cn1 [Compound 156, 3-(4-(1-benzyl-1H-1,2,4-triazol-3-yl)piperazin-1-yl)-6-(1-methyl-1H-pyrazol-4-yl)pyrazolo[1,5-a]pyridine] | 11.5 |  | 3.92 | 245 nM | 
8 | Cn1cc(-c2ccc3c(N4CCN(S(=O)(=O)N5CCCCC5)CC4)cnn3c2)cn1 [Compound 157, 6-(1-methyl-1H-pyrazol-4-yl)-3-(4-(piperidin-1-ylsulfonyl)piperazin-1-yl)pyrazolo[1,5-a]pyridine] |  | 1.91 | 2.80 | 2100 nM | 
9 | Cn1cc(-c2ccc3c(N4CCN(C(=O)NCc5ccccc5)CC4)cnn3c2)cn1 [Compound 161, N-benzyl-4-(6-(1-methyl-1H-pyrazol-4-yl)pyrazolo[1,5-a]pyridin-3-yl)piperazine-1-carboxamide] | 1.81 |  | 3.97 | 2110 nM | 
10 | Cn1cc(-c2ccc3c(N4CCN(c5ncc(Cc6ccco6)cn5)CC4)cnn3c2)cn1 [Compound 181, 3-(4-(5-(furan-2-ylmethyl)pyrimidin-2-yl)piperazin-1-yl)-6-(1-methyl-1H-pyrazol-4-yl)pyrazolo[1,5-a]pyridine] | 1 |  | 4.87 | 1860 nM | 
11 | Cn1cc(-c2ccc3c(N4CCN(c5ncc(CC6CCCCO6)cn5)CC4)cnn3c2)cn1 (stereo not shown) [Compound 184, 6-(1-methyl-1H-pyrazol-4-yl)-3-(4-(5-((tetrahydro-2H-pyran-2-yl)methyl)pyrimidin-2-yl)piperazin-1-yl)pyrazolo[1,5-a]pyridine] | 1.07 |  | 9.26 | 126 nM | 
12 | Cn1cc(-c2ccc3c(N4CCN(c5ncc([S+]([O-])c6ccccc6)cn5)CC4)cnn3c2)cn1 (stereo not shown) [Compound 187, 6-(1-methyl-1H-pyrazol-4-yl)-3-(4-(5-(phenylsulfinyl)pyrimidin-2-yl)piperazin-1-yl)pyrazolo[1,5-a]pyridine] | 1.32 |  | 4.97 | 153 nM | 
13 | CC(C)(C)OC(=O)N1CCN(c2cnn3cc(-c4cccnc4)ccc23)CC1 [Compound 217, tert-butyl 4-(6-(pyridin-3-yl)pyrazolo[1,5-a]pyridin-3-yl)piperazine-1-carboxylate] | 0.97 |  | 1.69 | 594 nM | 
14 | CC1CN(c2cnn3cc(-c4cnn(C)c4)ccc23)CCN1C(=O)OC(C)(C)C (stereo not shown) [Compound 238, tert-butyl-2-methyl-4-(6-(1-methyl-1H-pyrazol-4-yl)pyrazolo[1,5-a]pyridin-3-yl)piperazine-1-carboxylate] | 1.54 |  | 6.34 | 430 nM | 
15 | Cn1cc(-c2ccc3c(N4CCN(c5ccc(C(O)c6ccccc6)nc5)CC4)cnn3c2)cn1 (stereo not shown) [Compound 241, (5-(4-(6-(1-methyl-1H-pyrazol-4-yl)pyrazolo[1,5-a]pyridin-3-yl)piperazin-1-yl)pyridin-2-yl)(phenyl)methanol] | 6.43 |  | 16.27 | 974 nM | 
16 | Cn1cc(-c2ccc3c(N4CCN(c5ncc(Cc6ccccc6)o5)CC4)cnn3c2)cn1 [Compound 247, 5-benzyl-2-(4-(6-(1-methyl-1H-pyrazol-4-yl)pyrazolo[1,5-a]pyridin-3-yl)piperazin-1-yl)oxazole] |  | 8.43 | 2.45 | 1780 nM | 
17 | Cn1cc(-c2ccc3c(N4CCN(c5ncc(Cc6ccccn6)cn5)CC4)cnn3c2)cn1 [Compound 250, 6-(1-methyl-1H-pyrazol-4-yl)-3-{4-[5-(pyridine-2-ylmethyl)pyrimidin-2-yl]piperazin-1-yl}pyrazolo[1,5-a]pyridine] | 6.19 |  | 9.74 | 80.4 nM | 
18 | Cn1cc(-c2ccc3c(N4CCN(c5ncc(C(CO)c6ccc(F)cc6)cn5)CC4)cnn3c2)cn1 (stereo not shown) [Compound 257, 2-(4-fluorophenyl)-2-(2-(4-(6-(1-methyl-1H-pyrazol-4-yl)pyrazolo[1,5-a]pyridin-3-yl)piperazin-1-yl)pyrimidin-5-yl)ethan-1-ol] | 2.32 |  | 10.85 | 79.8 nM | 
19 | Cc1ccc(C(C)OC(=O)N2CCN(c3cnn4cc(-c5cnn(C)c5)ccc34)CC2)nc1 (stereo not shown) [Compound 261, 1-(5-methylpyridin-2-yl)ethyl 4-[6-(1-methyl-1H-pyrazol-4-yl)pyrazolo[1,5-a]pyridin-3-yl]piperazine-1-carboxylate] | 3.71 |  | 5.04 | 17.1 nM | 
20 | C[C@@H](OC(=O)N1CCN(c2cnn3cc(-c4cnn(C)c4)ccc23)CC1)c1ccc(OC(F)(F)F)cc1 [Compound 268, (1R)-1-[4-(trifluoromethoxy)phenyl]ethyl 4-[6-(1-methyl-1H-pyrazol-4-yl)pyrazolo[1,5-a]pyridin-3-yl]piperazine-1-carboxylate] | 7.02 |  | 5.57 | 11.8 nM | 
21 | C[C@@H](OC(=O)N1CCN(c2cnn3cc(-c4cnn(C)c4)ccc23)CC1)c1ccc(Cl)cc1Cl [Compound 270, (1R)-1-(2,4-dichlorophenyl)ethyl 4-[6-(1-methyl-1H-pyrazol-4-yl)pyrazolo[1,5-a]pyridin-3-yl]piperazine-1-carboxylate] | 1.92 |  | 7.71 | 158 nM | 
22 | CC(OC(=O)N1CCN(c2cnn3cc(-c4cnn(C)c4)ccc23)CC1)c1ccc(C(F)(F)F)c(F)c1 (stereo not shown) [Compound 273, 1-(3-fluoro-4-(trifluoromethyl)phenyl)ethyl 4-(6-(1-methyl-1H-pyrazol-4-yl)pyrazolo[1,5-a]pyridin-3-yl)piperazine-1-carboxylate] | 3.78 |  | 9.05 | 13 nM | 
23 | Cn1cc(-c2ccc3c(N4CCN(C(=O)NCc5ccc(C(F)(F)F)cc5)CC4)cnn3c2)cn1 [Compound 279, 4-[6-(1-methyl-1H-pyrazol-4-yl)pyrazolo[1,5-a]pyridin-3-yl]-N-[4-(trifluoromethyl)benzyl]piperazine-1-carboxamide] | 6.33 |  | 3.62 | 58.9 nM | 
24 | C[C@@H](OC(=O)N1CCN(c2cnc3cc(-c4cnn(C)c4)cnn23)CC1)c1ccc(Cl)cc1 [Compound 282, (R)-1-(4-chlorophenyl)ethyl 4-(7-(1-methyl-1H-pyrazol-4-yl)imidazo[1,2-b]pyridazin-3-yl)piperazine-1-carboxylate] | 4.02 |  | 6.40 |  | BLQ
25 | C[C@@H](OC(=O)N1CCN(c2cnc3cc(-c4cnn(C)c4)cnn23)CC1)c1ccc(C(F)(F)F)cc1 [Compound 283, (R)-1-(4-(trifluoromethyl)phenyl)ethyl 4-(7-(1-methyl-1H-pyrazol-4-yl)imidazo[1,2-b]pyridazin-3-yl)piperazine-1-carboxylate] | 6.8 |  | 5.90 |  | BLQ
